Results taken from US20170096504A1, “METHOD FOR PRODUCING FLUOROPOLYMER AQUEOUS DISPERSION LIQUID” (DAIKIN INDUSTRIES, LTD., priority 2014, published 2017).

Key:
[1] = Critical micelle concentration by surface tension measurement; format: physicochemical
Source text: The critical micelle concentration may be determined by measuring the surface tension. The surface tension may be measured using a surface tensiometer CBVP-A3 (Kyowa Interface Science Co., Ltd.), for example.
The critical micelle concentration may be determined in accordance with “Environmental Science & Technology (2011)”, 45(19), 8120-8128 and the literature cited therein.

[2] = Log POW (1-octanol/water partition coefficient) by HPLC calibration
Method: Log POW is a 1-octanol/water partition coefficient which is represented by Log P (wherein P is the ratio between the concentration of the fluorosurfactant in octanol and that in water in a phase-separated octanol/water (1:1) liquid mixture containing the fluorosurfactant).
Log POW is determined as follows. Specifically, HPLC is performed on standard substances (heptanoic acid, octanoic acid, nonanoic acid, and decanoic acid) each having a known octanol/water partition coefficient using TOSOH ODS-120T (φ4.6 mm×250 mm) as a column and acetonitrile/0.6 mass % HClO4 aqueous solution (=1/1 (vol/vol %)) as an eluent at a flow rate of 1.0 ml/min, a sample amount of 300 μL, and a column temperature of 40° C.; with a detection light of UV 210 nm. For each standard substance, a calibration curve is drawn with respect to the elution time and the known octanol/water partition coefficient. Based on this calibration curve, Log POW is calculated from the elution time of the sample liquid in HPLC.

`N.O=C(O)C(F)(OC(F)(F)C(F)(F)C(F)(F)F)C(F)(F)F` (centres unmarked) [C3F7OCF(CF3)COONH4] showed a critical micelle concentration [1] of 48 g/L.

Compound `O=S(=O)(O)CCC(F)(F)C(F)(F)C(F)(F)C(F)(F)C(F)(F)C(F)(F)F` [C6F13(CH2)2SO3H] has a critical micelle concentration [1] of 1 g/L.

Work on `N.O=C(O)C(F)(F)C(F)(F)C(F)(F)C(F)(F)F` [CF3(CF2)3COONH4, ammonium perfluoropentanoate] yielded a critical micelle concentration [1] of 82 g/L and a chromatographic logP [2] of 2.

`N.O=C(O)C(F)(F)C(F)(F)C(F)(F)C(F)(F)C(F)(F)F` [CF3(CF2)4COONH4, ammonium perfluorohexanoate] showed a critical micelle concentration [1] of 56 g/L and a chromatographic logP [2] of 2.4.

Work on `N.O=C(O)C(F)(OC(F)(F)C(F)(OC(F)(F)F)C(F)(F)F)C(F)(F)F` (centres unmarked) [CF3OCF(CF3)CF2OCF(CF3)COONH4, ammonium 2,3,3,3-tetrafluoro-2-[1,1,2,3,3,3-hexafluoro-2-(trifluoromethoxy)propoxy]-propanoate] yielded a critical micelle concentration [1] of 22 g/L and a chromatographic logP [2] of 3.4.
